US7517874B2 (priority 2007, dated 2009)
Read-outs that look alike come from different tables or passages of the source.

Columns and labels:
[1] = target: human CB1 receptor (hCB1) (Homo sapiens, UniProt P21554); assay: cell-based; assay type: cell-based
Procedure, shortened: (§1)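 First, cells in IBMX-containing HEPES-buffered HBSS are raised to elevated cAMP with 2-8 μM NKH-477 for 30 min. Data are normalised to the forskolin and forskolin + 1 μM CP55,940 controls.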

rat CB2 receptor (rCB2) = target: T1, rat CB2 receptor (rCB2) (Rattus norvegicus, UniProt Q9QZN9); assay: cell-based; assay type: cell-based; conditions: for +/− RCB2: agonist or inverse agonist at rCB2
T1 sequence (Q9QZN9 1-360): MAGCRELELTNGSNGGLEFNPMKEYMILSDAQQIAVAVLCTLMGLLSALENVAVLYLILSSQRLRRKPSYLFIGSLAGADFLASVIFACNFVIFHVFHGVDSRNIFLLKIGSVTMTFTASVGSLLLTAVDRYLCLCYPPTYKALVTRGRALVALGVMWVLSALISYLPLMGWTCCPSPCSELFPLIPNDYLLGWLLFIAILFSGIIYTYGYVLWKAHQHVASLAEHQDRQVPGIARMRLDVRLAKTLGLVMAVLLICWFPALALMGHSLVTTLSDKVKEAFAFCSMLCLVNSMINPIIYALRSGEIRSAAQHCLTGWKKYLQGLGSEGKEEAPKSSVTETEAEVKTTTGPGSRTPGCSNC
Procedure, shortened: as §1

human CB1 receptor (hCB1), sequence (P21554 whole entry): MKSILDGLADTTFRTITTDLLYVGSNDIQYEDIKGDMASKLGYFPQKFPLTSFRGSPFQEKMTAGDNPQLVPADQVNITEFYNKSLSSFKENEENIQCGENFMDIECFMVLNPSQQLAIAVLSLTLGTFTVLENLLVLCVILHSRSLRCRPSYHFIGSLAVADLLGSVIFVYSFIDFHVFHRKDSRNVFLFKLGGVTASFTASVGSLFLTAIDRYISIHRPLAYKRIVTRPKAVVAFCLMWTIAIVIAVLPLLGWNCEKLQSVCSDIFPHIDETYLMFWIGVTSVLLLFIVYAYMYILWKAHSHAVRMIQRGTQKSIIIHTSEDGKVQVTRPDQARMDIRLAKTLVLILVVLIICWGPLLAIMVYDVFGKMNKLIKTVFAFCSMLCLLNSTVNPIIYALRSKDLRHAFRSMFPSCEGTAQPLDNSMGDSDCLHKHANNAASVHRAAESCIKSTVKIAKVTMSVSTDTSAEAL

Row | SMILES | EC50 [1] | EC50 (rat CB2 receptor (rCB2)) | +/− RCB2 (rat CB2 receptor (rCB2)) | other results
1 | CNC(=O)[C@@H](NC(=O)c1nc(-c2ccc(S(C)(=O)=O)cc2)n2c1CN(C)CCC2)C(C)(C)C [Compound 379, (S)-N-(3,3-dimethyl-1-(methylamino)-1-oxobutan-2-yl)-8-methyl-3-(4-(methylsulfonyl)phenyl)-6,7,8,9-tetrahydro-5H-imidazo[1,5-a][1,4]diazepine-1-carboxamide] | > 10000 nM | > 10000 nM |  | 
2 | CNC(=O)[C@@H](NC(=O)c1nc(-c2ccc3ccccc3c2)n2c1CN(C)CCC2)C(C)(C)C [Compound 380, (S)-N-(3,3-dimethyl-1-(methylamino)-1-oxobutan-2-yl)-8-methyl-3-(naphthalen-2-yl)-6,7,8,9-tetrahydro-5H-imidazo[1,5-a][1,4]diazepine-1-carboxamide] | > 10000 nM |  | − | 
3 | CNC(=O)[C@@H](NC(=O)c1nc(-c2ccc(N(C)C)cc2)n2c1CN(C)CCC2)C(C)(C)C [Compound 381, (S)-N-(3,3-dimethyl-1-(methylamino)-1-oxobutan-2-yl)-3-(4-(dimethylamino)phenyl)-8-methyl-6,7,8,9-tetrahydro-5H-imidazo[1,5-a][1,4]diazepine-1-carboxamide] | > 10000 nM |  | − | 
4 | CNC(=O)[C@@H](NC(=O)c1nc(-c2cccc(N(C)C)c2)n2c1CN(C)CCC2)C(C)(C)C [Compound 382, (S)-N-(3,3-dimethyl-1-(methylamino)-1-oxobutan-2-yl)-3-(3-(dimethylamino)phenyl)-8-methyl-6,7,8,9-tetrahydro-5H-imidazo[1,5-a][1,4]diazepine-1-carboxamide] | > 10000 nM |  | − | 
5 | CNC(=O)[C@@H](NC(=O)c1nc(-c2cccc(-c3ccccc3)c2)n2c1CN(C)CCC2)C(C)(C)C [Compound 383, (S)-3-(biphenyl-3-yl)-N-(3,3-dimethyl-1-(methylamino)-1-oxobutan-2-yl)-8-methyl-6,7,8,9-tetrahydro-5H-imidazo[1,5-a][1,4]diazepine-1-carboxamide] | > 10000 nM |  | − | 
6 | CNC(=O)[C@@H](NC(=O)c1nc(-c2cc(F)cc(OC)c2)n2c1CN(C)CCC2)C(C)(C)C [Compound 384, (S)-N-(3,3-dimethyl-1-(methylamino)-1-oxobutan-2-yl)-3-(3-fluoro-5-methoxyphenyl)-8-methyl-6,7,8,9-tetrahydro-5H-imidazo[1,5-a][1,4]diazepine-1-carboxamide] | > 10000 nM |  | − | 
7 | CNC(=O)[C@@H](NC(=O)c1nc(-c2cccc(S(=O)(=O)N3CCCC3)c2)n2c1CN(C)CCC2)C(C)(C)C [Compound 385, (S)-N-(3,3-dimethyl-1-(methylamino)-1-oxobutan-2-yl)-8-methyl-3-(3-(pyrrolidin-1-ylsulfonyl)phenyl)-6,7,8,9-tetrahydro-5H-imidazo[1,5-a][1,4]diazepine-1-carboxamide] | > 10000 nM | > 10000 nM |  | 
8 | CNC(=O)[C@@H](NC(=O)c1nc(-c2cccc(C(=O)N3CCOCC3)c2)n2c1CN(C)CCC2)C(C)(C)C [Compound 386, (S)-N-(3,3-dimethyl-1-(methylamino)-1-oxobutan-2-yl)-8-methyl-3-(3-(morpholine-4-carbonyl)phenyl)-6,7,8,9-tetrahydro-5H-imidazo[1,5-a][1,4]diazepine-1-carboxamide] | > 10000 nM | > 10000 nM |  | 
9 | CNC(=O)[C@@H](NC(=O)c1nc(-c2ccc(C(=O)OC)cc2F)n2c1CN(C)CCC2)C(C)(C)C [Compound 387, (S)-methyl 4-(1-(3,3-dimethyl-1-(methylamino)-1-oxobutan-2-ylcarbamoyl)-8-methyl-6,7,8,9-tetrahydro-5H-imidazo[1,5-a][1,4]diazepin-3-yl)-3-fluorobenzoate] | > 10000 nM | > 10000 nM |  | 
10 | CNC(=O)[C@@H](NC(=O)c1nc(C2=CCN(C(=O)OC(C)(C)C)CC2)n2c1CN(C)CCC2)C(C)(C)C [Compound 388, (S)-tert-butyl 4-(1-(3,3-dimethyl-1-(methylamino)-1-oxobutan-2-ylcarbamoyl)-8-methyl-6,7,8,9-tetrahydro-5H-imidazo[1,5-a][1,4]diazepin-3-yl)-5,6-dihydropyridine-1(2H)-carboxylate] | > 10000 nM | > 10000 nM |  | 
11 | CNC(=O)[C@@H](NC(=O)c1nc(-c2ccc(F)c(C(=O)N3CCOCC3)c2)n2c1CN(C)CCC2)C(C)(C)C [Compound 389, (S)-N-(3,3-dimethyl-1-(methylamino)-1-oxobutan-2-yl)-3-(4-fluoro-3-(morpholine-4-carbonyl)phenyl)-8-methyl-6,7,8,9-tetrahydro-5H-imidazo[1,5-a][1,4]diazepine-1-carboxamide] | > 10000 nM | > 10000 nM |  | 
12 | CNC(=O)[C@@H](NC(=O)c1nc(-c2ccc(-n3cccn3)cc2)n2c1CN(C)CCC2)C(C)(C)C [Compound 390, (S)-3-(4-(1H-pyrazol-1-yl)phenyl)-N-(3,3-dimethyl-1-(methylamino)-1-oxobutan-2-yl)-8-methyl-6,7,8,9-tetrahydro-5H-imidazo[1,5-a][1,4]diazepine-1-carboxamide] | > 10000 nM |  | − | 
13 | CNC(=O)c1cccc(-c2nc(C(=O)N[C@H](C(=O)NC)C(C)(C)C)c3n2CCCN(C)C3)c1 [Compound 391, (S)-N-(3,3-dimethyl-1-(methylamino)-1-oxobutan-2-yl)-8-methyl-3-(3-(methylcarbamoyl)phenyl)-6,7,8,9-tetrahydro-5H-imidazo[1,5-a][1,4]diazepine-1-carboxamide] | > 10000 nM | > 10000 nM |  | 
14 | CNC(=O)[C@@H](NC(=O)c1nc(-c2ccc(C(=O)N3CCN(C)CC3)cc2)n2c1CN(C)CCC2)C(C)(C)C [Compound 392, (S)-N-(3,3-dimethyl-1-(methylamino)-1-oxobutan-2-yl)-8-methyl-3-(4-(4-methylpiperazin-1-carbonyl)phenyl)-6,7,8,9-tetrahydro-5H-imidazo[1,5-a][1,4]diazepine-1-carboxamide] |  |  |  | EC50 ([1]; groups >100 nM-10 μM and >10 μM, cAMP, CHO-K1 hCB1, read-out: EC50 HCB1): > 10000 nM; EC50 (rat CB2 receptor (rCB2); groups >100 nM-10 μM and >10 μM, cAMP, CHO-K1 rCB2, read-out: EC50 RCB2): > 10000 nM
15 | CNC(=O)[C@@H](NC(=O)c1nc(-c2ccc(F)c(OC)c2)n2c1CN(C)CCC2)C(C)(C)C [Compound 393, (S)-N-(3,3-dimethyl-1-(methylamino)-1-oxobutan-2-yl)-3-(4-fluoro-3-methoxyphenyl)-8-methyl-6,7,8,9-tetrahydro-5H-imidazo[1,5-a][1,4]diazepine-1-carboxamide] | > 10000 nM |  | + | 
16 | CNC(=O)[C@@H](NC(=O)c1nc(-c2ccc(C(=O)N(C)C)cc2)n2c1CN(C)CCC2)C(C)(C)C [Compound 394, (S)-N-(3,3-dimethyl-1-(methylamino)-1-oxobutan-2-yl)-3-(4-(dimethylcarbamoyl)phenyl)-8-methyl-6,7,8,9-tetrahydro-5H-imidazo[1,5-a][1,4]diazepine-1-carboxamide] | > 10000 nM |  | − | 
17 | CNC(=O)[C@@H](NC(=O)c1nc(-c2ccccn2)n2c1CN(C)CCC2)C(C)(C)C [Compound 395, (S)-N-(3,3-dimethyl-1-(methylamino)-1-oxobutan-2-yl)-8-methyl-3-(pyridin-2-yl)-6,7,8,9-tetrahydro-5H-imidazo[1,5-a][1,4]diazepine-1-carboxamide] | > 10000 nM |  | + | 
18 | CNC(=O)[C@@H](NC(=O)c1nc(C2=CCCCC2)n2c1CN(C)CCC2)C(C)(C)C [Compound 396, (S)-3-cyclohexenyl-N-(3,3-dimethyl-1-(methylamino)-1-oxobutan-2-yl)-8-methyl-6,7,8,9-tetrahydro-5H-imidazo[1,5-a][1,4]diazepine-1-carboxamide] | > 10000 nM |  | + | 
19 | CNC(=O)[C@@H](NC(=O)c1nc(/C=C/C(C)(C)C)n2c1CN(C)CCC2)C(C)(C)C [Compound 397, (S,E)-N-(3,3-dimethyl-1-(methylamino)-1-oxobutan-2-yl)-3-(3,3-dimethylbut-1-enyl)-8-methyl-6,7,8,9-tetrahydro-5H-imidazo[1,5-a][1,4]diazepine-1-carboxamide] |  |  | + | +/− HCB1 ([1]; agonist or inverse agonist at hCB1): +
20 | CNC(=O)[C@@H](NC(=O)c1nc(/C=C/COC)n2c1CN(C)CCC2)C(C)(C)C [Compound 398, (S,E)-N-(3,3-dimethyl-1-(methylamino)-1-oxobutan-2-yl)-3-(3-methoxyprop-1-enyl)-8-methyl-6,7,8,9-tetrahydro-5H-imidazo[1,5-a][1,4]diazepine-1-carboxamide] | > 10000 nM |  | + | 
21 | CNC(=O)[C@@H](NC(=O)c1nc(-c2ccccc2C(F)(F)F)n2c1CN(C)CCC2)C(C)(C)C [Compound 399, (S)-N-(3,3-dimethyl-1-(methylamino)-1-oxobutan-2-yl)-8-methyl-3-(2-(trifluoromethyl)phenyl)-6,7,8,9-tetrahydro-5H-imidazo[1,5-a][1,4]diazepine-1-carboxamide] | > 10000 nM |  | + | 
22 | CCCC/C=C/c1nc(C(=O)N[C@H](C(=O)NC)C(C)(C)C)c2n1CCCN(C)C2 [Compound 400, (S,E)-N-(3,3-dimethyl-1-(methylamino)-1-oxobutan-2-yl)-3-(hex-1-enyl)-8-methyl-6,7,8,9-tetrahydro-5H-imidazo[1,5-a][1,4]diazepine-1-carboxamide] | > 10000 nM |  | + | 
